Converted amounts (≈) assume the structure as drawn.
Columns and labels:
[1] = system: C. albicans E81022 strain; test: Anti-Candida activity, MIC measurement (broth dilution, visual inspection); assay type: cell-based; details: Candida albicans, E81022STRAIN, C. albicans E81022, RPMI1640, 48 hours at 35° C., read-out: Anti-Candida activity (minimum growth inhibitory concentration, MIC)
Experimental: (§1) For the C. albicans E81022 strain, a fungal suspension from a standing culture 48 hours at 30° C. in a Sabouraud dextrose liquid culture medium (SDB) was diluted 10000-fold with 1.3-times concentrated RPMI1640 medium to prepare a fungal suspension containing 1 to 2×10^4 cells/ml. For the A. fumigatus Tsukuba strain, −80° C. stored strain was diluted 1000-fold with 1.3-times concentrated RPMI1640 medium to prepare a fungal suspension containing 2 to 3×10^3 cells/ml.
(§2) Using a U-shaped bottomed 96-well plates, 8 samples/plate (A to H) of sample dilution solutions were prepared. On the first row was dispensed 240 μl of sterile distilled water, and on the 2nd to 12th row were dispersed 125 μL of 4% dimethylsulfoxide solution. Weighed sample was dissolved in dimethylsulfoxide to prepare a 5 mg/ml solution followed by adding 10 μL of the solutions to the first row of the prepared plates and preparing 12-step serial 2-fold dilutions (125 μL of solution+125 μL of 4% dimethylsulfoxide solution) on the plates.
(§3) The fungal suspension prepared in (1) was used in the amount of 75 μL/well to inoculate the flat-bottomed 96-well plates containing 25 μL/well of the test compound prepared in (2), and a standing culture was carried out aerobically for 48 hours at 35° C.

[2] = system: A. fumigatus Tsukuba strain; test: Anti-Aspergillus activity, MIC measurement (broth dilution, visual inspection); assay type: cell-based; details: RPMI1640, 48 hours at 35° C., read-out: Anti-Aspergillus activity (minimum growth inhibitory concentration, MIC)
Experimental: as §1, §2, §3

[3] = system: C. albicans E81022 strain; test: Experimental systemic Candida infection model in mice; assay type: in vivo; details: female ICR mice, C. albicans E81022 i.v. 4×10^6 cells/mouse; 10 mg/kg peroral, three times every 4 hours; observed until 14 days after infection
Experimental: A standing culture of C. albicans E81022 strain was static cultured for 48 hours at 30° C. in Sabouraud's dextrose agar (SDA), and the recovered fungal cells were suspended in sterilized physiological saline. By counting the fungal number on cytometry plate, the suspension was diluted to 2×10^7 cells/mL with sterilized saline to serve fungal inoculant.
The fungal inoculum was used in the amounts of 0.2 mL to inoculate 4.5 to 5.5 week-old femal ICR mice in the tail vein (4×10^6 cells/mouse).
From 0.5 to 1 hour after fungal inoculation, 0.2 mL of agent solution (dissolved or suspended in sterilized saline containing 6.5% dimethylsulfoxide and 3.5% Tween 80) was administered into the stomach using a peroral probe, three times every 4 hours. The agent concentration was set at 10 mg/kg and the number of animals in one group was 5 animals.
The protective effect was determined by observing life/death until 14 days after infection and calculating the mean survival days.

MIC [1] [µg/mL]	MIC [2] [µg/mL]	SMILES	Mean Survival Days [3] [days]
6.25 (≈ 17 µM)	1.56 (≈ 4.25 µM)	CCCCc1ccc2oc(CNC(=O)c3ccc(COC)nc3N)cc2c1 [Example 57, 2-Amino-N-(5-butyl-benzofuran-2-ylmethyl)-6-methoxymethyl-nicotinamide]	
0.1 (≈ 0.268 µM)	1.56 (≈ 4.18 µM)	Nc1ncccc1C(=O)NCc1cc2ccc(OCc3ccccc3)cc2o1 [Example 58, 2-Amino-N-(6-benzyloxy-benzofuran-2-ylmethyl)-nicotinamide]	
0.78 (≈ 2.51 µM)	3.13 (≈ 10.1 µM)	CCOc1ccc2cc(CNC(=O)c3cccnc3N)oc2c1 [Example 59, 2-Amino-N-(6-ethoxy-benzofuran-2-ylmethyl)-nicotinamide]	
0.39 (≈ 1.16 µM)	0.39 (≈ 1.16 µM)	CC=CCOc1ccc2cc(CNC(=O)c3cccnc3N)oc2c1 [Example 69, 2-Amino-N-(6-but-2-enyloxy-benzofuran-2-ylmethyl)-nicotinamide]	
0.78 (≈ 2.43 µM)	1.56 (≈ 4.85 µM)	C#CCOc1ccc2cc(CNC(=O)c3cccnc3N)oc2c1 [Example 70, 2-Amino-N-(6-prop-2-ynyloxy-benzofuran-2-ylmethyl)-nicotinamide]	
0.78 (≈ 2.31 µM)	1.56 (≈ 4.62 µM)	Nc1ncccc1C(=O)NCc1cc2ccc(OCC3CC3)cc2o1 [Example 72, 2-Amino-N-(6-cyclopropylmethoxy-benzofuran-2-ylmethyl)-nicotinamide]	
0.39 (≈ 0.9 µM)	3.13 (≈ 7.22 µM)	COCc1ccc(C(=O)NCc2cc3ccc(OCc4ccccc4)cc3s2)c(N)n1 [Example 77, 2-Amino-N-(6-benzyloxy-benzo[b]thiophen-2-ylmethyl)-6-methoxymethyl-nicotinamide]	
0.39 (≈ 0.964 µM)	1.56 (≈ 3.86 µM)	Nc1ccc(C(=O)NCc2cc3ccc(OCc4ccccc4)cc3s2)c(N)n1 [Example 78, 2,6-Diamino-N-(6-benzyloxy-benzo[b]thiohen-2-ylmethyl)-nicotinamide]	

The remaining lines, values behind:

SMILES	MIC [1] [µg/mL]	MIC [2] [µg/mL]	Mean Survival Days [3] [days]
Nc1ccc(C(=O)NCc2cc3ccc(OCc4ccccc4)cc3o2)c(N)n1 [Example 1, 2,6-Diamino-N-(6-benzyloxy-benzofuran-2-ylmethyl)-nicotinamide]	0.39 (≈ 1 µM)	1.56 (≈ 4.02 µM)	9.6
CCOc1ccc2cc(CNC(=O)c3ccc(N)nc3N)oc2c1 [Example 2, 2,6-Diamino-N-(6-ethoxy-benzofuran-2-ylmethyl)-nicotinamide]	1.56 (≈ 4.78 µM)	3.13 (≈ 9.59 µM)	8.6
Nc1ccc(C(=O)NCc2cc3ccc(OCC4CC4)cc3o2)c(N)n1 [Example 3, 2,6-Diamino-N-(6-cyclopropylmethoxy-benzofuran-2-ylmethyl)-nicotinamide]	1.56 (≈ 4.43 µM)	0.78 (≈ 2.21 µM)	8.6
COCc1ccc(C(=O)NCc2cc3ccc(OCc4ccccc4)cc3o2)c(N)n1 [Example 4, 2-Amino-N-(6-benzyloxy-benzofuran-2-ylmethyl)-6-methoxymethyl-nicotinamide]	0.78 (≈ 1.87 µM)	3.13 (≈ 7.5 µM)	10.2
C=CCOc1ccc2cc(CNC(=O)c3ccc(COC)nc3N)oc2c1 [Example 5, N-(6-Allyloxy-benzofuran-2-ylmethyl)-2-amino-6-methoxymethyl-nicotinamide]	0.78 (≈ 2.12 µM)	0.78 (≈ 2.12 µM)	12.8
COCc1ccc(C(=O)NCc2cc3ccc(OCC4CC4)cc3o2)c(N)n1 [Example 6, 2-Amino-N-(6-cyclopropylmethoxy-benzofuran-2-ylmethyl)-6-methoxymethyl-nicotinamide]	0.78 (≈ 2.04 µM)	1.56 (≈ 4.09 µM)	11.4
COCc1ccc(C(=O)NCc2cc3cc(OCc4ccccc4)ccc3o2)c(N)n1 [Example 7, 2-Amino-N-(5-benzyloxy-benzofuran-2-ylmethyl)-6-methoxymethyl-nicotinamide]	0.39 (≈ 0.934 µM)	1.56 (≈ 3.74 µM)	8.8
C=CCOc1ccc2cc(CNC(=O)c3ccc(N)nc3N)oc2c1 [Example 9, N-(6-Allyloxy-benzofuran-2-ylmethyl)-2,6-diamino-nicotinamide]			9.6
Nc1ccc(C(=O)NCc2cc3cc(OCC4CC4)ccc3o2)c(N)n1 [Example 53, 2,6-Diamino-N-(5-cyclopropylmethoxy-benzofuran-2-ylmethyl)-nicotinamide]	6.25 (≈ 17.7 µM)	6.25 (≈ 17.7 µM)	
C=CCOc1ccc2oc(CNC(=O)c3ccc(COC)nc3N)cc2c1 [Example 54, N-(5-Allyloxy-benzofuran-2-ylmethyl)-2-amino-6-methoxymethyl-nicotinamide]	1.56 (≈ 4.25 µM)	0.39 (≈ 1.06 µM)	
CCC(C)COc1ccc2cc(CNC(=O)c3cccnc3N)oc2c1 (centres unmarked) [Example 65, 2-Amino-N-(6-(2-methyl-butoxy)-benzofuran-2-ylmethyl)-nicotinamide]	1.56 (≈ 4.41 µM)	3.13 (≈ 8.86 µM)	
